SMILES strings stand for the structures. Residues, ends and D or L forms follow the SMILES beside them. *: point of attachment. Cbz = O=C(OCc1ccccc1)*; CH2F = FC*

In the assay the target is T1, Caspase-3 (Homo sapiens, UniProt P42574).
T1 sequence (P42574 29-175 limits assumed): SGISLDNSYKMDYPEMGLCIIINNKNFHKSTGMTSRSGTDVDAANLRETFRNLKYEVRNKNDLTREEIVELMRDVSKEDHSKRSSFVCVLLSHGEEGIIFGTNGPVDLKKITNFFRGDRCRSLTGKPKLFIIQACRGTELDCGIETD
T1 sequence (P42574 176-277 limits assumed): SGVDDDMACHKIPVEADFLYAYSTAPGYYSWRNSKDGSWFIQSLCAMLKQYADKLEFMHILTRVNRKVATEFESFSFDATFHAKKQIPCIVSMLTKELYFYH
Put plainly: Caspase-3 protease assay with protein-DNA conjugate substrate, streptavidin extraction, BeadArray detection; inhibition analysis. To be noted: end point assays, various concentrations of inhibitor vs. absence of inhibitor, FIG. 10. Type of assay: biochemical. The protocol:
Caspase-3 protease activity was carried out as follows. Briefly, the caspase-3 substrate included a protein moiety (peptide) having a caspase-3 amino acid recognition sequence. The protein moiety was attached at its amino terminus to a FAM-labeled DNA moiety and at its carboxy terminus to a biotin. The enzymatic reactions were performed in 30 to 60 microliter volumes having substrate concentrations in the range of 20 nM to 150 nM. The enzyme concentrations ranged from a few ng/ml to a few mg/ml. The assay buffer was 50 mM Tris-HCL, pH 8.0, 1 mM CaCl2, and 0.1% Tween-20 (v/v). The assay was carried out at 37° C. at varying times from 5 minutes to twelve hours.
Following incubation of the protease and substrate, the reaction mixture was extracted with streptavidin beads provided in molar excess for 15 minutes to remove uncleaved substrate (and cleaved protein fragments lacking the DNA moiety). Following removal of the streptavidin beads, the remaining mixture, containing FAM-labeled DNA fragments of the cleaved caspase-3 substrate, was diluted into GoldenGate™ hybridization buffer (Illumina, Inc., San Diego, Calif.) and hybridized onto a Sentrix® BeadArray Matrix for one hour at room temperature. The BeadArray matrix included nucleic acid probes that were complementary to the FAM-labeled DNA fragments. […]

With `COC(=O)C[C@H](NC(=O)[C@H](C)NC(=O)[C@@H](NC(=O)OCc1ccccc1)C(C)C)C(=O)CF` [ZVAD-FMK] (Cbz-Val-Ala-Asp(OMe)-CH2F), the “extent of inhibition of caspase-3 (mean signal intensity vs. time)” value was “as the concentration of inhibitor was increased the extent of inhibition was also increased”.

Source of the values: patent publication US7229769B2, “Compositions and methods for detecting protease activity” (Illumina, Inc., priority 2005, dated 2007).
